Experimental data published in ChEMBL document CHEMBL1136839, “3,4-Disubstituted isothiazoles: novel potent inhibitors of VEGF receptors 1 and 2” (Bioorg Med Chem Lett, 2009).

Legend:
[1] = target: Cyclin-dependent kinase 1 (Homo sapiens) (UniProt P06493); assay: Inhibition of CDK1 at 10 uM by HTRF assay
[2] = target: T1, Vascular endothelial growth factor receptor 2 (Homo sapiens, UniProt P35968); assay: Inhibition of VEGFR2 expressed in HEK293 cells assessed as inhibition of receptor phosphorylation by ELISA; format: cell-based
[3] = target: Cyclin-dependent kinase 2 (Homo sapiens) (UniProt P24941); assay: Inhibition of CDK2 at 10 uM by HTRF assay
[4] = target: T1, Vascular endothelial growth factor receptor 2; assay: Inhibition of VEGFR2 at IC50 concentration by ATP based competition assay
[5] = target: Glycogen synthase kinase-3 beta (Homo sapiens) (UniProt P49841); assay: Inhibition of GSK3-beta at 10 uM by HTRF assay
[6] = target: Insulin-like growth factor 1 receptor (Homo sapiens) (UniProt P08069); assay: Inhibition of IGF1R at 10 uM by HTRF assay
[7] = target: Epidermal growth factor receptor (Homo sapiens) (UniProt P00533); assay: Inhibition of EGFR at 10 uM by HTRF assay
[8] = target: T2, Aurora kinase A (Homo sapiens) (UniProt O14965); assay: Inhibition of Aurora A at 10 uM by HTRF assay
T2 sequence (whole entry): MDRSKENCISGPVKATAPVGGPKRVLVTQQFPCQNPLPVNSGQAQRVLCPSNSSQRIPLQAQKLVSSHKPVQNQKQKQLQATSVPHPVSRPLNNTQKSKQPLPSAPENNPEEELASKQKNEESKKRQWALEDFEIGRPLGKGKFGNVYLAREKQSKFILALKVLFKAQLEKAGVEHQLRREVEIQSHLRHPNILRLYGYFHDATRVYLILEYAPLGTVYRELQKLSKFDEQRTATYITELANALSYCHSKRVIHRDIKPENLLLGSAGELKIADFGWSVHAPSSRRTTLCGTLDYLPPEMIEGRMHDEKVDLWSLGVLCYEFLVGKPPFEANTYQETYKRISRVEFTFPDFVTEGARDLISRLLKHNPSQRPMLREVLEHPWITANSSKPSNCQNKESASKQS

[9] = Inhibition of PKA at 10 uM by HTRF assay
[10] = target: Aurora kinase B (Homo sapiens) (UniProt Q96GD4); assay: Inhibition of Aurora B at 10 uM by HTRF assay
[11] = target: Receptor-type tyrosine-protein kinase FLT3 (Homo sapiens) (UniProt P36888); assay: Inhibition of Flt3 at 10 uM by HTRF assay
[12] = target: T1, Vascular endothelial growth factor receptor 2; assay: Inhibition of VEGFR2 at IC90 concentration by ATP based competition assay
[13] = target: Serine/threonine-protein kinase PLK1 (Homo sapiens) (UniProt P53350); assay: Inhibition of Plk1 at 10 uM by HTRF assay
[14] = target: Hepatocyte growth factor receptor (Homo sapiens) (UniProt P08581); assay: Inhibition of cMET at 10 uM by HTRF assay
[15] = target: T1, Vascular endothelial growth factor receptor 2; assay: Inhibition of VEGFR2 assessed as blockade of pGAT-biotin phosphorylation in presence of 2 uM ATP by HTRF assay
[16] = Inhibition of Bcr-Abl T315 mutant at 10 uM by HTRF assay
[17] = target: Insulin receptor (Homo sapiens) (UniProt P06213); assay: Inhibition of InR at 10 uM by HTRF assay
[18] = target: Fibroblast growth factor receptor 1 (Homo sapiens) (UniProt P11362); assay: Inhibition of FGFR1 at 10 uM by HTRF assay
[19] = target: Vascular endothelial growth factor receptor 1 (Homo sapiens, UniProt P17948); assay: Inhibition of VEGFR1 assessed as blockade of pGAT-biotin phosphorylation in presence of 2 uM ATP by HTRF assay
[20] = target: Receptor tyrosine-protein kinase erbB-2 (Homo sapiens) (UniProt P04626); assay: Inhibition of ErbB2 at 10 uM by HTRF assay
[21] = Intrinsic permeability across human Caco-2 cells
[22] = target: Bcr/Abl fusion protein (Homo sapiens) (UniProt P00519+P11274); assay: Inhibition of bcr-Abl at 10 uM by HTRF assay; format: protein assay
[23] = target: Proto-oncogene tyrosine-protein kinase Src (Homo sapiens) (UniProt P12931); assay: Inhibition of Src at 10 uM by HTRF assay
[24] = target: Macrophage-stimulating protein receptor (Homo sapiens) (UniProt Q04912); assay: Inhibition of Ron at 10 uM by HTRF assay

T1 sequence (P35968 whole entry): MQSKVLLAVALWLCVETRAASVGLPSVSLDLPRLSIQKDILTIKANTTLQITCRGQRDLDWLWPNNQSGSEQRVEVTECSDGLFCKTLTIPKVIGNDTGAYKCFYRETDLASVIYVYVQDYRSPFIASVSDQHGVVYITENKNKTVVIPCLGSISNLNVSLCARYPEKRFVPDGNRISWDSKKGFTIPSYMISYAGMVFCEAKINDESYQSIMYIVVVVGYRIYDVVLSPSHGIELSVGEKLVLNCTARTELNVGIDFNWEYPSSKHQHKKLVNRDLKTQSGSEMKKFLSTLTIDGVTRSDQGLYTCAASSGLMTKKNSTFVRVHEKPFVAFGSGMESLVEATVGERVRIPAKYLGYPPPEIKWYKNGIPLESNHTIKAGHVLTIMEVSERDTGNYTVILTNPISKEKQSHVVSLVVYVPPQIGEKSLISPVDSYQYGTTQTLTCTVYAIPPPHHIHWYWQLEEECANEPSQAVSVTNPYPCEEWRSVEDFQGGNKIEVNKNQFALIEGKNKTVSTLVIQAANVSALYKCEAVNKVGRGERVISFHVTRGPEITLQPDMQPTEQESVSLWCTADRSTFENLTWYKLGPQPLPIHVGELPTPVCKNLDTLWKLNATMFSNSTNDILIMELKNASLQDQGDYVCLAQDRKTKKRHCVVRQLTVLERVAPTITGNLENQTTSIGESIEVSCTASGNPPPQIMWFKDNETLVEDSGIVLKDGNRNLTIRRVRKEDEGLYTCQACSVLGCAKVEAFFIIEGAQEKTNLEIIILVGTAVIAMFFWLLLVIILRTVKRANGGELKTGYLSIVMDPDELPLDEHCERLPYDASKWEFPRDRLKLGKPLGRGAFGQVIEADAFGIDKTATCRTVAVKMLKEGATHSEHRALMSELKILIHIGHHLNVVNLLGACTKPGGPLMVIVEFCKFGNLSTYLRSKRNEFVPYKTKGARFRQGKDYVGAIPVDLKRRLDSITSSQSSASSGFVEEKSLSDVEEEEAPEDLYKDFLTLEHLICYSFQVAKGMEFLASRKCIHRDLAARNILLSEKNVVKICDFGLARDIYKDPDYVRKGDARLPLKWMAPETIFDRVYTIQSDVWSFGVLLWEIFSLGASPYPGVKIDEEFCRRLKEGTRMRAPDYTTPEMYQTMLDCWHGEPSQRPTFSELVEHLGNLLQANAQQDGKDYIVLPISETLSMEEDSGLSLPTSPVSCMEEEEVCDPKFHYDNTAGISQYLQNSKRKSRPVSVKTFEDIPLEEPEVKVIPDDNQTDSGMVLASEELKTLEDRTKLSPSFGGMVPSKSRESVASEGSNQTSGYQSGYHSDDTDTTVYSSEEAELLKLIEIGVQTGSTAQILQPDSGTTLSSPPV
Chain of Receptor-type tyrosine-protein kinase FLT3 (Homo sapiens) (P36888 whole entry): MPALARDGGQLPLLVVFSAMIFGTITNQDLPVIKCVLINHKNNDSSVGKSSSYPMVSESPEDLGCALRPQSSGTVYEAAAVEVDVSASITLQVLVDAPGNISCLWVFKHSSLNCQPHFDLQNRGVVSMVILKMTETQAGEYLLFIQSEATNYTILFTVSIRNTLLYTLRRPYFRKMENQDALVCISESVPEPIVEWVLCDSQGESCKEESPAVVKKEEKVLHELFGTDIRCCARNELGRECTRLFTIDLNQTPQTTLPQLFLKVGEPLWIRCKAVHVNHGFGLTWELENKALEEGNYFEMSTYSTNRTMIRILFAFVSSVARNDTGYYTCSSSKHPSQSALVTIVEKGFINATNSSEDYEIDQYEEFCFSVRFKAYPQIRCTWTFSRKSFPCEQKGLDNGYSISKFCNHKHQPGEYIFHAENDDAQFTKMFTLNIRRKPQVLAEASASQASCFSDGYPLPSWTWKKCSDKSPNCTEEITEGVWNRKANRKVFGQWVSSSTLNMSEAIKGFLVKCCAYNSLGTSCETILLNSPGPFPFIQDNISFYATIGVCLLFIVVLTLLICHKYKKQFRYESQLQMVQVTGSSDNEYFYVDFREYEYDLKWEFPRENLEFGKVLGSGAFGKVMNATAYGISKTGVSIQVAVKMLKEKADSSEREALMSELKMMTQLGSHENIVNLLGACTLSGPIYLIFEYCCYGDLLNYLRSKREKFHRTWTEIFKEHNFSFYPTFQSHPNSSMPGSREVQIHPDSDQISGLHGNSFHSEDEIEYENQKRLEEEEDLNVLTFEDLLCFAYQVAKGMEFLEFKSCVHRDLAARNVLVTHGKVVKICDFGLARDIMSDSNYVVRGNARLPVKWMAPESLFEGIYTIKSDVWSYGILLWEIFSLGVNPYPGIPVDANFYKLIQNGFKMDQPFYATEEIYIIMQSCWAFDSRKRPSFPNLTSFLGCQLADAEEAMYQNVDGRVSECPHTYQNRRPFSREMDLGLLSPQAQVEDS
Chain of Receptor tyrosine-protein kinase erbB-2 (Homo sapiens) (P04626 whole entry): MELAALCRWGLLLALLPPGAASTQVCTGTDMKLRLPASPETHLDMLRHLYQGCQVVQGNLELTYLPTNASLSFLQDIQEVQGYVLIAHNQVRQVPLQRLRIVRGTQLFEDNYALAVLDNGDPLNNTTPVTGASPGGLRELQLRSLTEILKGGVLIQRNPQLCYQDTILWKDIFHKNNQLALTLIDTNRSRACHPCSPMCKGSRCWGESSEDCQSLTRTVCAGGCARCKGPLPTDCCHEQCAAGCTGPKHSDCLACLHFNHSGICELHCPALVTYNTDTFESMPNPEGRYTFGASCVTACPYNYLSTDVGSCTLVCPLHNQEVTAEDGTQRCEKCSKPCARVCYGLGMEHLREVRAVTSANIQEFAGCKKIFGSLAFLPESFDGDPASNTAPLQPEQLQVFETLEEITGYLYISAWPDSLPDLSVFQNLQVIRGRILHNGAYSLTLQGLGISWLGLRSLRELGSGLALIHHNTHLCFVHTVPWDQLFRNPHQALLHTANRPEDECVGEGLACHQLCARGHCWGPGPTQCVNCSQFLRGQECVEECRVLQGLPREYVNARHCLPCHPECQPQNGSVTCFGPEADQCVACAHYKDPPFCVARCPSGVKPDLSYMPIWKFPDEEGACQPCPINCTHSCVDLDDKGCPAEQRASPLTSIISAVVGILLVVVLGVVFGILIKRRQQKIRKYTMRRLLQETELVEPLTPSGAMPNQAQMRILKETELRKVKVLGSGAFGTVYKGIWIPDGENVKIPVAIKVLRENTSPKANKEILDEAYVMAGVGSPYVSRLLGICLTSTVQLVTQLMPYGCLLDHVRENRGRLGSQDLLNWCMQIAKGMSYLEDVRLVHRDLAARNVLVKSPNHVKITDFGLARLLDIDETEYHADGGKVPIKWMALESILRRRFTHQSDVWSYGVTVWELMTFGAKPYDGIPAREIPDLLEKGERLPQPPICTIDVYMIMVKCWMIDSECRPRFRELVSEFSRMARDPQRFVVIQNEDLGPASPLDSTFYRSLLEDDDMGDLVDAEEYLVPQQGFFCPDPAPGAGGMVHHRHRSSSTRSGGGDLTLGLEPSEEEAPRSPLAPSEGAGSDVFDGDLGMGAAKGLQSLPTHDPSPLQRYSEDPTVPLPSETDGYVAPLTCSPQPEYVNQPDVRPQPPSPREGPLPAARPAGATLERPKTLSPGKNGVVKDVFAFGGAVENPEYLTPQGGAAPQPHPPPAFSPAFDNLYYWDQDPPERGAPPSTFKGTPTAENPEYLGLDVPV
Chain of Aurora kinase B (Homo sapiens) (Q96GD4 whole entry): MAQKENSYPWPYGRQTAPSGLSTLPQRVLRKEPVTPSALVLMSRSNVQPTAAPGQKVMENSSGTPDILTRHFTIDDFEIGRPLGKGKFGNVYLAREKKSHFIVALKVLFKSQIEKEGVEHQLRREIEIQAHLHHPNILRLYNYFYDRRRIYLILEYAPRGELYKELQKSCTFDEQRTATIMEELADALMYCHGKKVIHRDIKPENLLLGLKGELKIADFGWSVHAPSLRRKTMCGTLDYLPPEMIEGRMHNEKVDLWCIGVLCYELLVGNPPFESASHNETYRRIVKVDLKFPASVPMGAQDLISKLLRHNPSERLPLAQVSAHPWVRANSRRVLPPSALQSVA
Chain of Proto-oncogene tyrosine-protein kinase Src (Homo sapiens) (P12931 2-536 limits assumed): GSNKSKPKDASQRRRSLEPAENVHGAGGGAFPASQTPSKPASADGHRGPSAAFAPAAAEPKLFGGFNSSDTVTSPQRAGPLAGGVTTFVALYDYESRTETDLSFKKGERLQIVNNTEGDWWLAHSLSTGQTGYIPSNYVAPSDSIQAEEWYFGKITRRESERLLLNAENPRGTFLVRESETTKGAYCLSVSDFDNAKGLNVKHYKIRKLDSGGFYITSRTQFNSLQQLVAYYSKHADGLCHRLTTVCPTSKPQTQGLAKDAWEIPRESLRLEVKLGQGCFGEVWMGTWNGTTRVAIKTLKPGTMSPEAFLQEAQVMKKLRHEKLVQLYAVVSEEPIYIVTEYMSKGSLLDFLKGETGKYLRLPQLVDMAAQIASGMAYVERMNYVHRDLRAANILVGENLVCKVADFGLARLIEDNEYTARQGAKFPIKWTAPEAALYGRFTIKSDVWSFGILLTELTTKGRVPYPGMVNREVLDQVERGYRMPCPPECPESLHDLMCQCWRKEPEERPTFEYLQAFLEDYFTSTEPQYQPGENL
Chain of Serine/threonine-protein kinase PLK1 (Homo sapiens) (P53350 whole entry): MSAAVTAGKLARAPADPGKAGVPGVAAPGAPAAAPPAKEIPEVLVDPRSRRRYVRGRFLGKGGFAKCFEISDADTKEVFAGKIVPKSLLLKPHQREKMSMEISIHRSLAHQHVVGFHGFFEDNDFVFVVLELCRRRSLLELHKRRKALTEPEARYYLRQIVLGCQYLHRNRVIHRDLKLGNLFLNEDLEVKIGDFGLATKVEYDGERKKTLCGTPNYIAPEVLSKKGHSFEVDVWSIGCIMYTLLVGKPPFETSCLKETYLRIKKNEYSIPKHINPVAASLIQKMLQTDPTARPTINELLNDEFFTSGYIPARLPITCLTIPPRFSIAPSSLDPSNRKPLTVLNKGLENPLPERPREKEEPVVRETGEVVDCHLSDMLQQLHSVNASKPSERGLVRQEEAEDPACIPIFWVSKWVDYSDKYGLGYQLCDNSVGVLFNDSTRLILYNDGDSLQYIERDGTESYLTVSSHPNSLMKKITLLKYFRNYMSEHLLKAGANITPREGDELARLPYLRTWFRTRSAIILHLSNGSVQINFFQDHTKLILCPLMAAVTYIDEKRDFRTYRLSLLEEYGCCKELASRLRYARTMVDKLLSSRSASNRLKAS

SMILES	inhibition [1]	IC50 [2]	inhibition [3]	Ki [4]	inhibition [5]	inhibition [6]	inhibition [7]	inhibition [8]	inhibition [9]	inhibition [10]	inhibition [11]	Ki [12]	inhibition [13]	inhibition [14]	IC50 [15]	inhibition [16]	inhibition [17]	inhibition [18]	IC50 [19]	inhibition [20]	other results
O=C(Nc1cccc(C(F)(F)F)c1)c1nscc1NCc1ccncc1	< 30%	54 nM	< 30%	160 nM	< 30%	< 30%	< 30%	< 30%	< 30%	< 30%	< 30%	130 nM	< 30%	< 30%	41 nM	< 30%	< 30%	< 30%	170 nM	< 30%	Papp [21]: 6.98 ×10⁻⁶ cm/s; inhibition [22]: < 30%; inhibition [23]: < 30%; inhibition [24]: < 30%
O=C(Nc1ccc(Br)cc1)c1nscc1NCc1ccncc1	< 30%	1040 nM	< 30%	90 nM	< 30%	< 30%	< 30%	< 30%	< 30%	< 30%	< 30%	70 nM	< 30%	< 30%	230 nM	< 30%	< 30%	< 30%	260 nM	< 30%	inhibition [22]: < 30%; inhibition [23]: < 30%; inhibition [24]: < 30%
